Assay results published in ChEMBL document CHEMBL4219213, “The design, synthesis and structure-activity relationships associated with C28 amine-based betulinic acid derivatives as inhibitors of HIV-1 maturation” (Bioorg Med Chem Lett, 2018).

What was measured:
in vivo [1] = settings: Sprague-Dawley, rat, po, 5 mg/kg
cells [2] = settings: Human immunodeficiency virus 1, subtype B NL4-3, MT2
in vitro [3] = settings: human, MT2 cells
Description: Cytotoxicity against human MT2 cells

[4] = Dissociation constant, pKa of the compound; assay type: physicochemical
[5] = Plasma concentration in Sprague-Dawley rat at 11.8 mg/kg, po via gavage after 24 hrs by LC-MS/MS analysis; assay type: ADME, organism-based
[6] = AUClast in Sprague-Dawley rat at 35 mg/kg, po via gavage up to 24 hrs by LC-MS/MS analysis; assay type: ADME, organism-based; design: time < 24 hr, dose 35 mg/kg, route oral; settings: in vivo
Rattus norvegicus [7] = assay: Dose normalized AUC in Sprague-Dawley rat at 11.8 mg/kg, po via gavage up to 24 hrs by LC-MS/MS analysis; assay type: ADME, organism-based; settings: in vivo
[8] = Oral bioavailability in Sprague-Dawley rat at 35 mg/kg via gavage up to 24 hrs by LC-MS/MS analysis; assay type: ADME, organism-based; settings: in vivo
[9] = Tmax in Sprague-Dawley rat at 11.8 mg/kg, po via gavage by LC-MS/MS analysis; assay type: ADME, organism-based; settings: in vivo
Rattus norvegicus [10] = assay: Extrapolated AUC in Sprague-Dawley rat at 5 mg/kg, po via gavage up to 24 hrs by LC-MS/MS analysis; assay type: ADME, organism-based; settings: in vivo
[11] = Dose normalized plasma concentration in Sprague-Dawley rat at 5 mg/kg, po via gavage after 24 hrs by LC-MS/MS analysis; assay type: ADME, organism-based; settings: in vivo
[12] = Cmax in Sprague-Dawley rat at 124 mg/kg, po via gavage by LC-MS/MS analysis; assay type: ADME, organism-based; design: dose 124 mg/kg, route oral; settings: in vivo
Rattus norvegicus [13] = assay: Dose normalized AUC in Sprague-Dawley rat at 124 mg/kg, po via gavage up to 24 hrs by LC-MS/MS analysis; assay type: ADME, organism-based; settings: in vivo
[14] = Tmax in Sprague-Dawley rat at 35 mg/kg, po via gavage by LC-MS/MS analysis; assay type: ADME, organism-based; settings: in vivo
[15] = Cmax in Sprague-Dawley rat at 5 mg/kg, po via gavage by LC-MS/MS analysis; assay type: ADME, organism-based; design: dose 5 mg/kg, route oral; settings: in vivo
[16] = AUClast in Sprague-Dawley rat at 5 mg/kg, po via gavage up to 24 hrs by LC-MS/MS analysis; assay type: ADME, organism-based; design: time < 24 hr, dose 5 mg/kg, route oral; settings: in vivo
[17] = Dose normalized plasma concentration in Sprague-Dawley rat at 11.8 mg/kg, po via gavage after 24 hrs by LC-MS/MS analysis; assay type: ADME, organism-based; settings: in vivo
[18] = Cmax in Sprague-Dawley rat at 35 mg/kg, po via gavage by LC-MS/MS analysis; assay type: ADME, organism-based; design: dose 35 mg/kg, route oral; settings: in vivo
Rattus norvegicus [19] = assay: Extrapolated AUC in Sprague-Dawley rat at 124 mg/kg, po via gavage up to 24 hrs by LC-MS/MS analysis; assay type: ADME, organism-based; settings: in vivo
[20] = AUClast in Sprague-Dawley rat at 124 mg/kg, po via gavage up to 24 hrs by LC-MS/MS analysis; assay type: ADME, organism-based; design: time < 24 hr, dose 124 mg/kg, route oral; settings: in vivo
[21] = Cmax in Sprague-Dawley rat at 11.8 mg/kg, po via gavage by LC-MS/MS analysis; assay type: ADME, organism-based; design: dose 11.8 mg/kg, route oral; settings: in vivo
[22] = Total AUC in Sprague-Dawley rat at 124 mg/kg, po via gavage up to 24 hrs by LC-MS/MS analysis; assay type: ADME, organism-based; design: dose 124 mg/kg, time AUCmax, route oral; settings: in vivo
Rattus norvegicus [23] = assay: Extrapolated AUC in Sprague-Dawley rat at 11.8 mg/kg, po via gavage up to 24 hrs by LC-MS/MS analysis; assay type: ADME, organism-based; settings: in vivo
[24] = Dose normalized plasma concentration in Sprague-Dawley rat at 35 mg/kg, po via gavage after 24 hrs by LC-MS/MS analysis; assay type: ADME, organism-based; settings: in vivo
[25] = Oral bioavailability in Sprague-Dawley rat at 5 mg/kg via gavage up to 24 hrs by LC-MS/MS analysis; assay type: ADME, organism-based; settings: in vivo
[26] = AUClast in Sprague-Dawley rat at 11.8 mg/kg, po via gavage up to 24 hrs by LC-MS/MS analysis; assay type: ADME, organism-based; design: dose 11.8 mg/kg, time < 24 hr, route oral; settings: in vivo
Rattus norvegicus [27] = assay: Dose normalized AUC in Sprague-Dawley rat at 5 mg/kg, po via gavage up to 24 hrs by LC-MS/MS analysis; assay type: ADME, organism-based; settings: in vivo
[28] = Total AUC in Sprague-Dawley rat at 11.8 mg/kg, po via gavage up to 24 hrs by LC-MS/MS analysis; assay type: ADME, organism-based; design: dose 11.8 mg/kg, time AUCmax, route oral; settings: in vivo
[29] = Total AUC in Sprague-Dawley rat at 5 mg/kg, po via gavage up to 24 hrs by LC-MS/MS analysis; assay type: ADME, organism-based; design: dose 5 mg/kg, time AUCmax, route oral; settings: in vivo
Rattus norvegicus [30] = assay: Extrapolated AUC in Sprague-Dawley rat at 35 mg/kg, po via gavage up to 24 hrs by LC-MS/MS analysis; assay type: ADME, organism-based; settings: in vivo
[31] = Tmax in Sprague-Dawley rat at 124 mg/kg, po via gavage by LC-MS/MS analysis; assay type: ADME, organism-based; settings: in vivo
[32] = Plasma concentration in Sprague-Dawley rat at 124 mg/kg, po via gavage after 24 hrs by LC-MS/MS analysis; assay type: ADME, organism-based
[33] = Tmax in Sprague-Dawley rat at 5 mg/kg, po via gavage by LC-MS/MS analysis; assay type: ADME, organism-based; settings: in vivo
[34] = Oral bioavailability in Sprague-Dawley rat at 11.8 mg/kg via gavage up to 24 hrs by LC-MS/MS analysis; assay type: ADME, organism-based; settings: in vivo
[35] = Dose normalized plasma concentration in Sprague-Dawley rat at 124 mg/kg, po via gavage after 24 hrs by LC-MS/MS analysis; assay type: ADME, organism-based; settings: in vivo
Rattus norvegicus [36] = assay: Dose normalized AUC in Sprague-Dawley rat at 35 mg/kg, po via gavage up to 24 hrs by LC-MS/MS analysis; assay type: ADME, organism-based; settings: in vivo
[37] = Plasma concentration in Sprague-Dawley rat at 35 mg/kg, po via gavage after 24 hrs by LC-MS/MS analysis; assay type: ADME, organism-based
in vivo [38] = settings: Sprague-Dawley, rat, plasma, po, 5 mg/kg
Description: Plasma concentration in Sprague-Dawley rat at 5 mg/kg, po via gavage after 24 hrs by LC-MS/MS analysis

[39] = Total AUC in Sprague-Dawley rat at 35 mg/kg, po via gavage up to 24 hrs by LC-MS/MS analysis; assay type: ADME, organism-based; design: dose 35 mg/kg, time AUCmax, route oral; settings: in vivo
[40] = Oral bioavailability in Sprague-Dawley rat at 124 mg/kg via gavage up to 24 hrs by LC-MS/MS analysis; assay type: ADME, organism-based; settings: in vivo
Rattus norvegicus [41] = assay: Toxicity in Sprague-Dawley rat at 5 to 124 mg/kg, po via gavage up to 24 hrs by LC-MS/MS analysis; assay type: organism-based; settings: in vivo
in vivo [42] = settings: Sprague-Dawley, rat, po, 5 mg/kg; remark: listed apart in the source
cells [43] = settings: Human immunodeficiency virus 1, subtype B NL4-3, MT2; remark: listed apart in the source
in vitro [44] = settings: rat, liver microsomes
Description: Half life in rat liver microsomes at 0.5 uM in presence of NADPH by LC-MS/MS method

in vitro [45] = settings: mouse, liver microsomes
Description: Half life in mouse liver microsomes at 0.5 uM in presence of NADPH by LC-MS/MS method

in vitro [46] = settings: human, liver microsomes
Description: Half life in human liver microsomes at 0.5 uM in presence of NADPH by LC-MS/MS method

C=C(C)[C@@H]1CC[C@]2(CNCCCN3CCOCC3)CC[C@]3(C)[C@H](CC[C@@H]4[C@@]5(C)CC=C(c6ccc(C(=O)O)cc6)C(C)(C)[C@@H]5CC[C@]43C)[C@@H]12
AUC(0-t) at 6 h (in vivo [1]): 0.045 µM·h | IC50 (cells [2]): 28 nM | CC50 (in vitro [3]): 2200 nM | pKa [4]: 8.2

C=C(C)[C@@H]1CC[C@]2(CNCCCN3CCS(=O)(=O)CC3)CC[C@]3(C)[C@H](CC[C@@H]4[C@@]5(C)CC=C(c6ccc(C(=O)O)cc6)C(C)(C)[C@@H]5CC[C@]43C)[C@@H]12.Cl
concentration at 24 h [5]: 91 nM | AUC(0-t) at 24 h [6]: 11.4 µM·h | AUC/dose (Rattus norvegicus [7]): 461 µM·h | bioavailability [8]: 7% | Tmax [9]: 4.7 h | %AUCextra (Rattus norvegicus [10]): 8% | Cp/dose [11]: 6.8 nM | Cmax [12]: 697 nM | AUC/dose (Rattus norvegicus [13]): 235 µM·h | Tmax [14]: 5.3 h | Cmax [15]: 232 nM | AUC(0-t) at 24 h [16]: 2.99 µM·h | Cp/dose [17]: 7.7 nM | Cmax [18]: 451 nM | %AUCextra (Rattus norvegicus [19]): 17% | AUC(0-t) at 24 h [20]: 23.2 µM·h | Cmax [21]: 285 nM | AUC at 24 h [22]: 29.1 µM·h | %AUCextra (Rattus norvegicus [23]): 2% | Cp/dose [24]: 6.7 nM | bioavailability [25]: 12% | AUC(0-t) at 24 h [26]: 5.31 µM·h | AUC/dose (Rattus norvegicus [27]): 650 µM·h | AUC at 24 h [28]: 5.44 µM·h | AUC at 24 h [29]: 3.25 µM·h | %AUCextra (Rattus norvegicus [30]): 14% | Tmax [31]: 17.3 h | concentration at 24 h [32]: 635 nM | Tmax [33]: 6.7 h | bioavailability [34]: 8% | Cp/dose [35]: 5.1 nM | AUC/dose (Rattus norvegicus [36]): 378 µM·h | concentration at 24 h [37]: 234 nM | concentration at 24 h (in vivo [38]): 34 nM | AUC at 24 h [39]: 13.2 µM·h | bioavailability [40]: 4%

C=C(C)[C@@H]1CC[C@]2(CNCCCN3CCS(=O)(=O)CC3)CC[C@]3(C)[C@H](CC[C@@H]4[C@@]5(C)CC=C(c6ccc(C(=O)O)cc6)C(C)(C)[C@@H]5CC[C@]43C)[C@@H]12
AUC(0-t) at 6 h (in vivo [1]): 1.71 µM·h | Activity (Rattus norvegicus [41]): Non-Toxic | AUC(0-t) at 24 h (in vivo [42]): 2.81 µM·h | CC50 (in vitro [3]): 3500 nM | EC50 (cells [43]): 20 nM

C=C(C)[C@@H]1CC[C@]2(CNCCN3CCOCC3)CC[C@]3(C)[C@H](CC[C@@H]4[C@@]5(C)CC=C(c6ccc(C(=O)O)cc6)C(C)(C)[C@@H]5CC[C@]43C)[C@@H]12
half-life at 0.5 µM (in vitro [44]): > 2 h | IC50 (cells [2]): 15 nM | half-life at 0.5 µM (in vitro [45]): 1.5 h | CC50 (in vitro [3]): 5000 nM | half-life at 0.5 µM (in vitro [46]): 1.62 h | pKa [4]: 8.2

C=C(C)[C@@H]1CC[C@]2(C(=O)NCCN(C)C)CC[C@]3(C)[C@H](CC[C@@H]4[C@@]5(C)CC=C(c6ccc(C(=O)O)cc6)C(C)(C)[C@@H]5CC[C@]43C)[C@@H]12
half-life at 0.5 µM (in vitro [44]): > 2 h | IC50 (cells [2]): 31 nM | AUC(0-t) at 24 h (in vivo [42]): 3.81 µM·h | half-life at 0.5 µM (in vitro [45]): > 2 h | EC50 (cells [43]): 201 nM | half-life at 0.5 µM (in vitro [46]): > 2 h | concentration at 24 h (in vivo [38]): 27 nM
